Format in all cases: in vivo
The test system of one experiment is Zymoseptoria tritici. Nature of the experiment: Leaf blotch of wheat (SEPTTR), disease control on wheat seedlings. The following applies: for pest or weed control at 121.5 g/ha: low volume application at 121.5 g/H; for pest or weed control at 100 ppm: high volume application at 100 ppm. In short, it runs like this: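 Z. tritici spores were inoculated onto wheat seedlings (Yuma, first leaf emerged) either before or after treatment. Treatment was an automated spray to run-off of acetone/Triton X-100 water solutions, or a track spray of EC formulations with 0.1% Trycol 5941. Plants were held in dew chambers at 20 °C and then a greenhouse at 20 °C. First-leaf severity (0–100%) was converted to percent control against untreated plants.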

Another experiment deals with Puccinia triticina. Nature of the experiment: Wheat brown rust (PUCCRT), disease control on wheat seedlings. As to conditions: for pest or weed control at 121.5 g/ha: low volume application at 121.5 g/H; for pest or weed control at 100 ppm: high volume application at 100 ppm. In short, it runs like this:
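Compounds in acetone, diluted with nine volumes of water containing 110 ppm Triton X-100, sprayed to run-off on first-leaf Yuma wheat seedlings; track-spray tests used EC formulations with 0.1% Trycol 5941. Puccinia triticina spores applied before or after treatment. Overnight dark dew room at 22° C, 100% humidity, then greenhouse at 24° C.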

In the next experiment the test system is Phakopsora pachyrhizi. The experiment is described as follows: Asian soybean rust (PHAKPA), disease control on soybean seedlings. As to conditions: High volume application at 25 ppm. The method, boiled down:
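Two-week-old Williams 82 soybean seedlings were sprayed to run-off with compound in acetone/water (1:9) containing 0.011% Tween 20. Inoculation was 3 days before (curative) or 1 day after (protectant) treatment, followed by 24 h dark dew at 22 °C, 100% RH, then 23 °C; disease severity scored on sprayed leaves.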

Setting [1] is: 24 h, 1 Day Protectant, read-out: SEPTTR disease control, 1DP, LV activity.
Where [2] appears, read: 72 h, 3 Day Curative, read-out: SEPTTR disease control, 3DC, LV activity.
The mark [3] stands for this setting: 24 h, 1 Day Protectant, read-out: PUCCRT disease control, 1DP, LV activity.
Where [4] appears, read: 72 h, 3 Day Curative, read-out: PUCCRT disease control, 3DC, LV activity.
The mark [5] stands for this setting: 24 h, 1 Day Protectant, read-out: PHAKPA 1DP disease control rating.
The mark [6] stands for this setting: 72 h, 3 Day Curative, read-out: PHAKPA 3DC disease control rating.
Where [7] appears, read: 24 h, 1 Day Protectant, wheat leaf blotch, read-out: SEPTTR 1DP disease control, LV activity.
The mark [8] stands for this setting: 72 h, 3 Day Curative, wheat leaf blotch, read-out: SEPTTR 3DC disease control, LV activity.
The mark [9] stands for this setting: 24 h, 1 Day Protectant, wheat brown rust, read-out: PUCCRT 1DP disease control, LV activity.
Where [10] appears, read: 72 h, 3 Day Curative, wheat brown rust, read-out: PUCCRT 3DC disease control, LV activity.

Where two headings read alike, the source gives them in different places. Some results are limits rather than exact numbers.

This passage reports pest or weed control results from patent publication US20180186742A1, “PICOLINAMIDES AS FUNGICIDES” (Dow AgroSciences LLC, priority 2017, published 2018).

Turning to `COc1ccnc(C(=O)N[C@@H](C)C(=O)O[C@H](C)[C@H](c2ccc(F)cc2C)C(C)C)c1OC(C)=O` [Compound 192], the pest or weed control at 121.5 g/ha is less than 0% in the experiment with Zymoseptoria tritici (setting [1]), greater than 80% with Zymoseptoria tritici (setting [2]), greater than 80% with Puccinia triticina (setting [3]) and less than 80% with Puccinia triticina (setting [4]). Moreover, the figures for the pest or weed control at 25 ppm with Phakopsora pachyrhizi (setting [5]) and with Phakopsora pachyrhizi (setting [6]) were greater than 80% and less than 80%, respectively.

As for `COc1ccnc(C(=O)N[C@@H](C)C(=O)O[C@@H](C)[C@H](c2ccc3c(c2)OCO3)C(C)C)c1OC(C)=O` [Compound 380], the pest or weed control at 121.5 g/ha with Zymoseptoria tritici (setting [7]) is less than 80%; in the experiment on Zymoseptoria tritici (setting [8]) it was less than 80%; in the experiment with Puccinia triticina (setting [9]), greater than 80%; in the experiment on Puccinia triticina (setting [10]) it was greater than 80%. For the same molecule, the pest or weed control at 25 ppm in the experiment on Phakopsora pachyrhizi (setting [5]) and in the experiment with Phakopsora pachyrhizi (setting [6]) was less than 80% in each case.

Turning to `COc1ccnc(C(=O)N[C@@H](C)C(=O)O[C@@H](C)[C@H](c2cc(F)ccc2C)C(C)C)c1OC(C)=O` [Compound 361], the pest or weed control at 121.5 g/ha with Zymoseptoria tritici (setting [1]) is less than 80%; in the experiment on Zymoseptoria tritici (setting [2]), less than 80%; in the experiment on Puccinia triticina (setting [3]), greater than 80%; in the experiment on Puccinia triticina (setting [4]), less than 80%. Besides, the pest or weed control at 25 ppm in the experiment with Phakopsora pachyrhizi (setting [5]) and in the experiment on Phakopsora pachyrhizi (setting [6]) was greater than 80% in each case.

On to `CCC(CC)[C@H](c1ccc(F)cc1C)[C@H](C)OC(=O)[C@H](C)NC(=O)c1nccc(OC)c1OC(C)=O` [Compound 179], for which the pest or weed control at 121.5 g/ha in the experiment with Zymoseptoria tritici (setting [1]) was greater than 80%; with Zymoseptoria tritici (setting [2]), greater than 80%; with Puccinia triticina (setting [3]) it was greater than 80%; in the experiment with Puccinia triticina (setting [4]), less than 0%. The pest or weed control at 25 ppm in the experiment with Phakopsora pachyrhizi (setting [5]) and in the experiment on Phakopsora pachyrhizi (setting [6]) was less than 80% throughout.

Regarding `COc1ccnc(C(=O)N[C@@H](C)C(=O)O[C@@H](C)[C@H](c2ccc(OC(C)C)cc2)C(C)C)c1OCOC(C)=O` [Compound 379], the pest or weed control at 121.5 g/ha was less than 80% in the experiment on Zymoseptoria tritici (setting [7]), less than 80% in the experiment on Zymoseptoria tritici (setting [8]), greater than 80% with Puccinia triticina (setting [9]) and less than 80% in the experiment with Puccinia triticina (setting [10]). Moreover, the pest or weed control at 25 ppm with Phakopsora pachyrhizi (setting [5]) and in the experiment on Phakopsora pachyrhizi (setting [6]) was less than 80% in each case.

As to `CCC(CC)[C@@H](c1ccc(F)cc1OC)[C@H](C)OC(=O)[C@H](C)NC(=O)c1nccc(OC)c1OC(C)=O` [Compound 229], the pest or weed control at 121.5 g/ha in the experiment on Zymoseptoria tritici (setting [1]) is greater than 80%; in the experiment with Zymoseptoria tritici (setting [2]) it was greater than 80%; in the experiment with Puccinia triticina (setting [3]), greater than 80%; with Puccinia triticina (setting [4]) it was less than 80%. Also, the pest or weed control at 25 ppm is greater than 80% in the experiment on Phakopsora pachyrhizi (setting [5]) and less than 80% with Phakopsora pachyrhizi (setting [6]).

Regarding `COc1cc(F)ccc1[C@H](C1CCCCC1)[C@H](C)OC(=O)[C@H](C)NC(=O)c1nccc(OC)c1OC(C)=O` [Compound 227], the pest or weed control at 121.5 g/ha in the experiment on Zymoseptoria tritici (setting [1]), in the experiment with Zymoseptoria tritici (setting [2]), in the experiment with Puccinia triticina (setting [3]) and with Puccinia triticina (setting [4]) was greater than 80% each time. The pest or weed control at 25 ppm in the experiment on Phakopsora pachyrhizi (setting [5]) was greater than 80%; in the experiment on Phakopsora pachyrhizi (setting [6]), less than 80%.

Take `COc1ccnc(C(=O)N[C@@H](C)C(=O)O[C@@H](C)[C@H](c2ccc(OC(F)(F)F)cc2)C(C)C)c1OC(C)=O` [Compound 381]: the pest or weed control at 121.5 g/ha was greater than 80% in the experiment with Zymoseptoria tritici (setting [7]), greater than 80% in the experiment on Zymoseptoria tritici (setting [8]), greater than 80% in the experiment with Puccinia triticina (setting [9]) and less than 80% in the experiment with Puccinia triticina (setting [10]). Also, the pest or weed control at 25 ppm in the experiment on Phakopsora pachyrhizi (setting [5]) and in the experiment with Phakopsora pachyrhizi (setting [6]) was less than 80% throughout.

Regarding `CCC(C)[C@H](c1ccc(F)cc1C)[C@H](C)OC(=O)[C@H](C)NC(=O)c1nccc(OC)c1OC(C)=O` (stereo partly shown) [Compound 182], the pest or weed control at 121.5 g/ha in the experiment with Zymoseptoria tritici (setting [1]) is less than 80%; in the experiment on Zymoseptoria tritici (setting [2]), greater than 80%; with Puccinia triticina (setting [3]) it was greater than 80%; in the experiment with Puccinia triticina (setting [4]), less than 80%. For the same molecule, the pest or weed control at 25 ppm in the experiment on Phakopsora pachyrhizi (setting [5]) and with Phakopsora pachyrhizi (setting [6]) was less than 80% in each case.

Regarding `COc1ccnc(C(=O)N[C@@H](C)C(=O)O[C@@H](C)[C@H](c2ccc(Cl)cc2Cl)C(C)C)c1OC(C)=O` [Compound 367], the pest or weed control at 121.5 g/ha is greater than 80% in the experiment on Zymoseptoria tritici (setting [7]), less than 80% in the experiment with Zymoseptoria tritici (setting [8]), greater than 80% in the experiment on Puccinia triticina (setting [9]) and greater than 80% in the experiment on Puccinia triticina (setting [10]). For the same molecule, the pest or weed control at 25 ppm in the experiment on Phakopsora pachyrhizi (setting [5]) and with Phakopsora pachyrhizi (setting [6]) was greater than 80% each time.

Take `COc1cc[n+]([O-])c(C(=O)N[C@@H](C)C(=O)O[C@@H](C)[C@@H](c2ccc(C)cc2C)C2CCCC2)c1O` [Compound 212]: the pest or weed control at 100 ppm with Zymoseptoria tritici (24 h, 1 Day Protectant, read-out: SEPTTR disease control, 1DP, HV activity) was less than 80%; with Zymoseptoria tritici (72 h, 3 Day Curative, read-out: SEPTTR disease control, 3DC, HV activity), greater than 80%; in the experiment on Puccinia triticina (24 h, 1 Day Protectant, read-out: PUCCRT disease control, 1DP, HV activity), greater than 80%; with Puccinia triticina (72 h, 3 Day Curative, read-out: PUCCRT disease control, 3DC, HV activity) it was less than 80%. For the same molecule, the pest or weed control at 121.5 g/ha in the experiment on Zymoseptoria tritici (setting [1]) is less than 0%; in the experiment on Zymoseptoria tritici (setting [2]) it was less than 0%; with Puccinia triticina (setting [3]) it was less than 80%; in the experiment with Puccinia triticina (setting [4]), less than 0%. The pest or weed control at 25 ppm in the experiment on Phakopsora pachyrhizi (setting [5]) and with Phakopsora pachyrhizi (setting [6]) was less than 80% throughout.

Turning to `CCC(C)[C@@H](c1ccc(F)cc1C)[C@H](C)OC(=O)[C@H](C)NC(=O)c1nccc(OC)c1OC(C)=O` (stereo partly shown) [Compound 188], the pest or weed control at 121.5 g/ha in the experiment on Zymoseptoria tritici (setting [1]) is greater than 80%; in the experiment on Zymoseptoria tritici (setting [2]), greater than 80%; with Puccinia triticina (setting [3]) it was greater than 80%; in the experiment on Puccinia triticina (setting [4]), less than 80%. The pest or weed control at 25 ppm with Phakopsora pachyrhizi (setting [5]) and with Phakopsora pachyrhizi (setting [6]) was greater than 80% each time.

Take `COc1ccnc2c(=O)n([C@@H](C)C(=O)O[C@@H](C)[C@@H](c3ccc(C)cc3C)C(C)C)c(=O)oc12` [Compound 208]: the pest or weed control at 121.5 g/ha in the experiment with Zymoseptoria tritici (setting [1]) is less than 0%; in the experiment on Zymoseptoria tritici (setting [2]), less than 80%; with Puccinia triticina (setting [3]) it was less than 80%; in the experiment with Puccinia triticina (setting [4]), less than 80%. Moreover, the pest or weed control at 25 ppm is less than 80% in the experiment on Phakopsora pachyrhizi (setting [5]) and less than 0% in the experiment on Phakopsora pachyrhizi (setting [6]).

On to `COc1ccnc(C(=O)N[C@@H](C)C(=O)O[C@@H](C)[C@H](c2ccc(F)cc2C)C2CCC2)c1OCOC(C)=O` [Compound 197], for which the pest or weed control at 121.5 g/ha in the experiment with Zymoseptoria tritici (setting [1]), with Zymoseptoria tritici (setting [2]), in the experiment on Puccinia triticina (setting [3]) and with Puccinia triticina (setting [4]) was greater than 80% in each case. Moreover, the pest or weed control at 25 ppm in the experiment on Phakopsora pachyrhizi (setting [5]) and in the experiment on Phakopsora pachyrhizi (setting [6]) was greater than 80% throughout.

As for `COc1cc(F)ccc1[C@H](C1CCCC1)[C@H](C)OC(=O)[C@H](C)NC(=O)c1nccc(OC)c1OC(C)=O` [Compound 228], the pest or weed control at 121.5 g/ha in the experiment on Zymoseptoria tritici (setting [1]) was greater than 80%; with Zymoseptoria tritici (setting [2]), less than 80%; in the experiment on Puccinia triticina (setting [3]) it was greater than 80%; in the experiment with Puccinia triticina (setting [4]), less than 80%. Also, the pest or weed control at 25 ppm in the experiment with Phakopsora pachyrhizi (setting [5]) was greater than 80%; in the experiment on Phakopsora pachyrhizi (setting [6]) it was less than 80%.

For the molecule `COc1cc(F)ccc1[C@@H](C1CCCCC1)[C@H](C)OC(=O)[C@H](C)NC(=O)c1nccc(OC)c1OC(C)=O` [Compound 223], the pest or weed control at 121.5 g/ha was greater than 80% in the experiment with Zymoseptoria tritici (setting [1]), greater than 80% with Zymoseptoria tritici (setting [2]), less than 80% with Puccinia triticina (setting [3]) and less than 80% in the experiment with Puccinia triticina (setting [4]). Further, the pest or weed control at 25 ppm is less than 80% with Phakopsora pachyrhizi (setting [5]) and less than 0% with Phakopsora pachyrhizi (setting [6]).
